Measurements published in the supplement of paper PMC10307832.

How the values were obtained:
Assay in all cases: relative viability (nuclei count vs DMSO), 5 days (fraction); higher = more cells survive
[1] = compound: C=CC(=O)N1CCC[C@@H](n2nc(-c3ccc(Oc4ccccc4)cc3)c3c(N)ncnc32)C1 [Ibrutinib] + CC(=O)c1c(C)c2cnc(Nc3ccc(N4CCNCC4)cn3)nc2n(C2CCCC2)c1=O [Palbociclib] (partner 0.5 µM)
How it was run: (§1)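 Lung cancer cell lines in 1536-well plates were dosed by pin tool the day after seeding, either with one drug alone or with a fixed anchor-drug dose plus five library-drug doses (not always all listed) in √10 steps. After 5 days, cells were fixed and their nuclei stained in one step (final 0.05% Triton X-100, 1% formaldehyde, 1 ug/ml Hoechst), then counted on 4× images. Relative viability is the nuclei count in treated wells divided by that in vehicle wells. Values are medians of duplicate plates.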

[2] = compound: C=CC(=O)N1CCC[C@@H](n2nc(-c3ccc(Oc4ccccc4)cc3)c3c(N)ncnc32)C1 [Ibrutinib] + CS(=O)(=O)CCNCc1ccc(-c2ccc3ncnc(Nc4ccc(OCc5cccc(F)c5)c(Cl)c4)c3c2)o1 [Lapatinib] (partner 2 µM)
How it was run: as §1

[3] = compound: C=CCc1cccc(/C=N/NC(=O)CN2CCN(Cc3ccccc3)CC2)c1O [PAC-1] + CCNC(=O)c1noc(-c2cc(C(C)C)c(O)cc2O)c1-c1ccc(CN2CCOCC2)cc1 [Luminespib] (partner 0.01 µM)
How it was run: as §1

[4] = compound: C=CCc1cccc(/C=N/NC(=O)CN2CCN(Cc3ccccc3)CC2)c1O [PAC-1] + CS(=O)(=O)N1CCN(Cc2cc3nc(-c4cccc5[nH]ncc45)nc(N4CCOCC4)c3s2)CC1 [Pictilisib] (partner 1 µM)
How it was run: as §1

| Cell Line | relative viability ([1]; first compound 0.005 µM) | relative viability ([1]; first compound 0.01581 µM) | relative viability ([1]; first compound 0.05 µM) | relative viability ([1]; first compound 0.1581 µM) | relative viability ([1]; first compound 0.5 µM) | relative viability ([2]; first compound 0.005 µM) | relative viability ([2]; first compound 0.01581 µM) | relative viability ([2]; first compound 0.05 µM) | relative viability ([2]; first compound 0.1581 µM) | relative viability ([2]; first compound 0.5 µM) | relative viability ([3]; first compound 0.02 µM) | relative viability ([3]; first compound 0.06325 µM) | relative viability ([3]; first compound 0.2 µM) | relative viability ([3]; first compound 2 µM) | relative viability ([4]; first compound 0.02 µM) | relative viability ([4]; first compound 0.06325 µM) | relative viability ([4]; first compound 0.2 µM) | relative viability ([4]; first compound 2 µM) |
| --- | --- | --- | --- | --- | --- | --- | --- | --- | --- | --- | --- | --- | --- | --- | --- | --- | --- | --- |
| 201T | 0.225 | 0.327 | 0.377 | 0.378 | 0.36 | 1.04 | 0.983 | 1.08 | 0.968 | 1.02 | 1.03 | 1.05 | 1.09 | 1.04 | 0.561 | 0.702 | 0.75 | 0.672 |
| A549 | – | – | – | – | – | 0.931 | 0.916 | 1.05 | 1.08 | 1.02 | – | – | – | – | 0.483 | 0.511 | 0.509 | 0.487 |
| A-427 | 0.549 | 0.533 | 0.491 | – | 0.496 | 1.01 | 1.01 | 1.06 | 0.982 | 1.01 | 1.13 | 0.769 | 0.988 | 0.951 | 0.689 | 0.748 | 0.724 | 0.831 |
| ABC-1 | 0.482 | 0.439 | – | – | 0.733 | 1.14 | 1.19 | 1.29 | 1.19 | 1.26 | 0.526 | 0.803 | 0.682 | 0.519 | 0.624 | 0.665 | 0.545 | 0.74 |
| BEN | 0.462 | 0.465 | 0.491 | 0.459 | 0.453 | – | 0.791 | 0.519 | 0.526 | 0.551 | 0.594 | 0.282 | 0.535 | 0.273 | 0.557 | 0.534 | 0.536 | 0.51 |
| CAL-12T | 0.241 | 0.286 | 0.233 | 0.286 | 0.14 | 0.615 | 0.67 | 0.711 | 0.647 | 0.683 | 0.268 | 0.517 | 0.381 | 0.247 | 0.202 | 0.44 | 0.482 | 0.568 |
| COR-L23 | 0.285 | 0.304 | 0.282 | 0.353 | 0.332 | 1.24 | 0.948 | – | 0.964 | 0.982 | 0.569 | 0.71 | 0.629 | 0.625 | 0.853 | 0.848 | 0.644 | 0.855 |
| COR-L 105 | 0.403 | 0.406 | 0.424 | 0.393 | 0.303 | 0.36 | 0.402 | 0.368 | 0.314 | 0.337 | 0.769 | 0.788 | 0.627 | 0.725 | 0.397 | 0.397 | 0.167 | 0.411 |
| Calu-6 | – | – | – | – | – | 1.07 | 1.04 | 0.98 | 1.13 | – | – | – | – | – | 0.857 | 0.82 | 0.875 | 0.833 |
| ChaGo-K-1 | 0.94 | 0.886 | 0.953 | 0.869 | 0.901 | – | – | – | – | – | 0.645 | 0.737 | 0.645 | 0.715 | 0.817 | 0.818 | 0.925 | 0.627 |
| EBC-1 | – | – | – | – | – | 0.199 | 0.197 | 0.219 | 0.186 | 0.238 | – | – | – | – | 0.371 | 0.345 | 0.379 | 0.335 |
| EKVX | 0.304 | 0.314 | 0.259 | 0.269 | 0.155 | 0.178 | 0.215 | 0.216 | 0.191 | 0.179 | 0.917 | 0.855 | 0.815 | 0.837 | 0.453 | 0.415 | 0.374 | 0.488 |
| EMC-BAC-2 | 0.509 | 0.493 | 0.566 | – | 0.497 | 0.827 | 0.864 | 0.858 | 0.909 | 0.899 | 1.19 | 1.17 | 1.18 | 1.15 | 0.549 | 0.536 | 0.566 | 0.555 |
| EPLC-272H | – | 0.282 | 0.312 | 0.316 | 0.272 | – | 1.05 | 0.877 | 0.68 | 0.704 | 0.296 | 0.262 | 0.202 | 0.277 | – | 0.349 | 0.32 | 0.268 |
| H3255 | 0.312 | 0.328 | 0.293 | 0.324 | 0.26 | 0.26 | 0.28 | 0.248 | 0.182 | 0.218 | 0.905 | 0.852 | 0.672 | 0.804 | 0.454 | 0.455 | 0.448 | 0.471 |
| HARA | 0.284 | 0.217 | 0.241 | 0.254 | 0.223 | 0.836 | 0.638 | 0.727 | 0.777 | 0.796 | 0.554 | 0.674 | 0.793 | 0.937 | 0.414 | 0.376 | 0.323 | 0.413 |
| HCC-15 | 0.788 | 0.705 | 0.742 | 0.706 | 0.73 | 1.01 | 0.819 | 0.877 | 0.835 | 0.865 | 0.447 | 0.37 | 0.355 | 0.279 | 0.683 | 0.731 | 0.743 | 0.783 |
| HCC-44 | 0.982 | 0.977 | 1.03 | 0.979 | 0.92 | 1.09 | 0.948 | 1.02 | 1.08 | 1.02 | 1.04 | 1.14 | 1.01 | 0.964 | 0.455 | 0.697 | 0.666 | 0.648 |
| HCC-78 | 0.481 | 0.472 | 0.507 | 0.42 | 0.414 | 1.27 | 0.812 | 0.57 | 0.398 | 0.399 | – | – | – | – | 0.179 | 0.196 | 0.236 | 0.195 |
| HCC-366 | 0.439 | 0.405 | 0.38 | 0.385 | 0.428 | 1.07 | 0.978 | 1.02 | 0.959 | 1.19 | – | – | – | – | 0.203 | 0.142 | 0.149 | 0.184 |
